From article PMC10467082, “Anti-Toxoplasma gondii Effects of Lipopeptide Derivatives of Lycosin-I” (Toxins, 2023) come the findings set out here.

In data set [1] the test system is human foreskin fibroblasts (HFFs). The data set is described as follows: CCK-8 cell viability assay on host cells. The format is cell-based. To be noted: CCK-8, HFFs, 24 h; for pIC50: 80-1.25 μM twofold dilution, three independent experiments, read-out: half-inhibitory concentration (IC50) on HFF viability; for cytotoxicity to HFFs: comparison with Lycosin-I where stated. The method, then:
HFF cells were seeded in 96-well plates (1 × 10^4 cells per well). After 24 h of incubation, the previous complete medium was removed and replaced with the new complete medium containing different concentrations (80–1.25 μM, twofold serial dilution) of lipopeptides. Cells were treated with the complete medium in one well as the control group (each group was set up with three wells). After 24 h, 10 μL of CCK-8 reagent was added to each well and then incubated for 2 h. The absorbance value was measured at 450 nm using a microplate reader. Three independent experiments were carried out.

For data set [2], the system named is T. gondii tachyzoites (RH strain). The data set can be described thus: Trypan blue assay of tachyzoite mortality (lipopeptide screening). Format: cell-based, Toxoplasma gondii. To be noted: 2.5, 5, 10, 20, 40 μM, 2 h at room temperature. The method, then:
(§1) To evaluate the difference of anti-T. gondii in the vitro between lipopeptides and Lycosin-I, we set up different concentration gradients, including 2.5 μM, 5 μM, 10 μM, 20 μM and 40 μM. The freshly obtained tachyzoites (3 × 10^6) were incubated with different concentrations of lipopeptides and PBS at room temperature for 2 h, then centrifuged at 3000 rbp for 8 min and the supernatant was discarded. The tachyzoite pellet was resuspended in PBS and mixed well. Then, the tachyzoite suspension was stained with 0.4% trypan blue staining solution for 5 min. Tachyzoite viability was observed under a light microscope (Motic China Group Co., Ltd., Xiamen, China), and five fields were randomly selected to calculate tachyzoite mortality. Three independent experiments were carried out.

The subject of a further data set is T. gondii tachyzoites. The data set is described as follows: Serum stability assay: serum incubation followed by trypan blue assay. Format: in vitro ADME, Toxoplasma gondii. To be noted: 100 μM in PBS containing 10% fetal bovine serum, 37 °C, 24 h; read-out tachyzoite mortality by trypan blue; three independent experiments. The protocol:
as §1
A combination of serum incubation and a trypan blue assay was used to investigate whether or not the anti-Toxoplasma activity of lipopeptides and Lycosin-I was affected by serum. Briefly, stock solutions (1 mM) of Lycosin-I, L-C12 and L-an were diluted into 100 μM solutions in PBS containing 10% fetal bovine serum, and incubated at 37 °C for 24 h. Fresh tachyzoites were then treated with these solutions as described in the method in Section 5.3 for lipopeptide screening. Three independent experiments were carried out.

pIC50: −log10 of the molar value. Entries after “also recorded” stand apart in the source; their conditions may differ. Square brackets hold non-standard residues; d marks the D form. Ends that are not written are not given here. Peptide text beside a SMILES is read from it. * marks the point of attachment. Lauroyl = CCCCCCCCCCCC(=O)*; Ahx = NCCCCCC(=O)O

Consider `CCCCCCCCCCCC(=O)N[C@@H](CCCCN)C(=O)NCC(=O)N[C@@H](Cc1c[nH]c2ccccc12)C(=O)N[C@@H](Cc1ccccc1)C(=O)N[C@@H](CCCCN)C(=O)N[C@@H](C)C(=O)N[C@@H](CCSC)C(=O)N[C@@H](CCCCN)C(=O)N[C@@H](CO)C(=O)N[C@H](C(=O)N[C@@H](C)C(=O)N[C@@H](CCCCN)C(=O)N[C@@H](Cc1ccccc1)C(=O)N[C@H](C(=O)N[C@@H](C)C(=O)N[C@@H](CCCCN)C(=O)N[C@@H](CCC(=O)O)C(=O)N[C@@H](CCCCN)C(=O)N[C@@H](CC(C)C)C(=O)N[C@@H](CCCCN)C(=O)N[C@@H](CCC(=O)O)C(=O)N[C@@H](Cc1c[nH]cn1)C(=O)N[C@@H](CC(C)C)C(=O)O)[C@@H](C)CC)[C@@H](C)CC` [L-C12] (Lauroyl-KGWFKAMKSIAKFIAKEKLKEHL-OH), for which, in data set [1], the pIC50 was 4.81.

For the compound `NCCCCCC(=O)O` [aminocaproic acid], in data set [2], the “anti-T. gondii activity in vitro (tachyzoite mortality)” value is on record as “no effect”.

Turning to KGWFKAMKSIAKFIAKEKLKEHL [Lycosin-I], the “cytotoxicity to HFFs” value in data set [1] is “concentration-dependent cytotoxicity”. Further, in the data set on T. gondii tachyzoites, the “anti-T. gondii activity after serum treatment compared to control untreated with serum” value is listed as “significantly had reduced anti-T. gondii activity; also recorded: only slightly decreased”.

Turning to `CC[C@H](C)[C@H](NC(=O)[C@H](Cc1ccccc1)NC(=O)[C@H](CCCCN)NC(=O)[C@H](C)NC(=O)[C@@H](NC(=O)[C@H](CO)NC(=O)[C@H](CCCCN)NC(=O)[C@H](CCSC)NC(=O)[C@H](C)NC(=O)[C@H](CCCCN)NC(=O)[C@H](Cc1ccccc1)NC(=O)[C@H](Cc1c[nH]c2ccccc12)NC(=O)CNC(=O)[C@H](CCCCN)NC(=O)CCCCCN)[C@@H](C)CC)C(=O)N[C@@H](C)C(=O)N[C@@H](CCCCN)C(=O)N[C@@H](CCC(=O)O)C(=O)N[C@@H](CCCCN)C(=O)N[C@@H](CC(C)C)C(=O)N[C@@H](CCCCN)C(=O)N[C@@H](CCC(=O)O)C(=O)N[C@@H](Cc1c[nH]cn1)C(=O)N[C@@H](CC(C)C)C(=O)O` [L-an] (H-[Ahx]KGWFKAMKSIAKFIAKEKLKEHL-OH), in data set [1], the pIC50 was 4.51 and the “cytotoxicity to HFFs” value was “no significant difference”. The “anti-T. gondii activity after serum treatment compared to control untreated with serum” value in the data set on T. gondii tachyzoites is reported as “no significant difference; also recorded: retained substantial anti-T. gondii activity”.
